Here are results for one molecule from patent publication US20230399298A1 (priority 2020, published 2023).

One may read the melting point as the temperature of the solid-liquid transition.

Series [1] in a line: Formulation stability comparison test (suspension in benzyl benzoate and castor oil, 60° C. and 80° C., HPLC). Format: physicochemical. The procedure: (§1) The HPLC conditions used in the present disclosure were as follows, and the purity of donepezil ether palmitate hydrochloride was measured. • 1) detector: ultraviolet absorption photometer (measurement wavelength: 276 nm) • 2) column: YMC-Pack Pro C18 (4.6×250 mm, 5 μm) • 3) mobile phase A: Solution obtained by dissolving 1.88 g of sodium 1-hexanesulfonate in 1000 mL of purified water, and then adding 1.0 mL of phosphoric acid thereto, wherein each amount of reaction substances was accurately weighed. • 4) mobile phase B: acetonitrile
Experiments were conducted to evaluate the formulation stability over time of donepezil ether palmitate (DEP) and donepezil ether palmitate hydrochloride (DEP HCl).
Specifically, each of DEP and DEP HCl was mixed with benzyl benzoate and castor oil to prepare a suspension, and then stored at 60° C. and 80° C. The chemical stability was analyzed by HPLC (purity and increased amount of related substances), and results thereof are shown in Table 4.

A short description of series [2]: Raw material harsh stability comparison test (60° C., HPLC). Format: physicochemical. The procedure: as §1
Experiments were conducted to evaluate the raw material harsh stability over time of donepezil ether palmitate (DEP) and donepezil ether palmitate hydrochloride (DEP HCl).
Specifically, in the experiments, each compound was stored under a condition of 60° C., and the chemical stability thereof was analyzed by HPLC (purity and increased amount of related substances).

Series [3] is described as follows: Raw material accelerated stability comparison test (40° C., RH 75%, light-shielding seal, HPLC). Format: physicochemical. The procedure:
as §1
accelerated stability over time of donepezil ether palmitate (DEP) and donepezil ether palmitate hydrochloride (DEP HCl).
Specifically, in the experiments, each compound was stored in a light-shielding seal under accelerated conditions (40° C., RH 75%), and the chemical stability thereof was analyzed by HPLC (purity and increased amount of related substances).

As for `CCCCCCCCCCCCCCOCC(=O)OC1=C(CC2CCN(Cc3ccccc3)CC2)Cc2cc(OC)c(OC)cc21` [DEP, 2-((1-benzylpiperidin-4-yl)methyl)-5,6-dimethoxy-1H-inden-3-yl 2-(tetradecyloxy)acetate], the melting point came to 55.1 °C. This molecule showed a Purity in series [1] (Day 1 at 80° C.) of 97.96%. The same molecule returned a Purity in series [1] (Initial) of 99.79%. In addition, the Purity in series [1] (Week 1 at 60° C.) is on record as 97.54%. Also, the “purity decreased by” value in series [2] (2nd week versus initial) is listed as “about 18.60%”. In series [2] (Day 1), the PT impurity is 1.61% and the Purity is listed as 95.44%. Moreover, in series [2] (Day 3), the PT impurity worked out at 3.33% and the Purity is given as 92.05%. In series [2] (Initial), the Purity was 99.76%. In series [2] (Week 2), this molecule had a PT impurity of 4.39% and a Purity of 81.16%. Further, the “purity decreased by” value in series [3] (6th month versus initial) is recorded as “about 2.47%”. In series [3] (Initial), the PT impurity turned out to be 0.02% and the Purity amounted to 99.22%. Moreover, in series [3] (Month 1), the PT impurity worked out at 0.04% and the Purity is given as 99.05%. In series [3] (Month 3), this molecule registered a PT impurity of 0.08% and a Purity of 98.65%. In series [3] (Month 6), this molecule yielded a PT impurity of 0.13% and a Purity of 96.75%.
